Experimental data reported in patent US20120041211A1, “NOVEL PROCESS FOR PREPARING CARBOXY-CONTAINING PYRAZOLEAMIDO COMPOUNDS 597” (priority 2009, published 2012).

Assay: Stability of solvate form on exposure to the lab atmosphere
Format: physicochemical
Conditions: 21° C., 30% relative humidity, material from wet suspension
Procedure: 20 mg of Form 4 was added to a small vessel. 0.711 ml of Form 4 saturated MeOH solution was added to the vessel making a suspension. The suspension was stirred for 7 days at 25° C. Thereafter the suspension was stirred at 21° C. for 1½ months. The wet suspension was analysed by XRPD (Cu-source) giving substantially the following d-values. […] For diffractogram see FIG. 8.
20 mg of Form 4 was added to a small vessel. 0.711 ml MTBE was added to the vessel making a suspension. The suspension was stirred for 7 days at 25° C. The wet suspension was analysed by XRPD (Cu-source) giving substantially the following d-values.

SMILES	stability / form transformation on exposure to the lab atmosphere
CC(C)(C)c1c(C(=O)NC2C3CC4CC(C3)CC2C4)cnn1-c1ccc(C(=O)O)cc1 (centres unmarked) [MTBE Solvate, 4-[4-(2-adamantylcarbamoyl)-5-tert-butyl-pyrazol-1-yl]benzoic acid]	transforms to Hydrate
CC(C)(C)c1c(C(=O)NC2C3CC4CC(C3)CC2C4)cnn1-c1ccc(C(=O)O)cc1 (centres unmarked) [MeOH Solvate, 4-[4-(2-adamantylcarbamoyl)-5-tert-butyl-pyrazol-1-yl]benzoic acid]	rapidly transforms to Form 3
